Reference: patent US8835418B2, “Hexafluoroisopropyl carbamate derivatives, their preparation and their therapeutic application” (SANOFI, priority 2010, dated 2014)
Counter-ions that a name gives are not always drawn.

Tests used:
[1] = target: T1, enzyme MGL (monoacyl glycerol lipase) (Mus musculus, UniProt O35678); assay: radioenzymatic assay of MGL activity (hydrolysis of [3H]2-oleoylglycerol by mouse brain homogenate); assay type: biochemical; conditions: mouse brain homogenate (37.5 μg protein), 20 min preincubation, 50 μM 2-OG with [3H]2-OG, ambient temperature, read-out: IC50 (concentration which inhibits the control enzymatic activity of the MGL by 50%)
T1 construct: The source of enzyme MGL is a homogenate of mouse brain from which the cerebellum and the medulla oblongata have been removed; from tissue; host or cells: mouse brain homogenate (cerebellum and medulla oblongata removed)
T1 sequence (O35678 1-303): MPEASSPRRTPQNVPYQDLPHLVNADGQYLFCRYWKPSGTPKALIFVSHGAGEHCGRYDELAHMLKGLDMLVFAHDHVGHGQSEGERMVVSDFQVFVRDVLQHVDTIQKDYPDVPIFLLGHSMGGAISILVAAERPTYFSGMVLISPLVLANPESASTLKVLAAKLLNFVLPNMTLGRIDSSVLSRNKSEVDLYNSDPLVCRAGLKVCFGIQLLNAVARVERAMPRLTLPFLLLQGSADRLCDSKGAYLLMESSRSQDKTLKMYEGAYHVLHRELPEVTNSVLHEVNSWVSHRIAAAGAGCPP
Procedure: The inhibitory activity with respect to MGL is given by the concentration which inhibits 50% of the activity of MGL.
The inhibitory activity was measured in a radioenzymatic assay based on measuring the product of hydrolysis of 2-oleoylglycerol ([^3H]2-OG) by the enzyme MGL. The products of hydrolysis of [^3H]2-OG, labelled on the glycerol, are oleic acid and [^3H]glycerol. The source of enzyme MGL is a homogenate of mouse brain from which the cerebellum and the medulla oblongata have been removed. The mouse brains are removed and stored at −80° C. until they are used or homogenized immediately for 2 times 5 seconds using a Precellys device (Bertin) at 5000 rpm in a 10 mM Tris-HCl pH 8, 150 mM NaCl, 1 mM EDTA buffer at 4° C.
The dilution series of the compounds is prepared from stock solutions at 20 mM in 100% DMSO. The first dilution of this series is prepared in 100% DMSO and then the second is prepared in the enzymatic reaction buffer (50 mM phosphate, 0.1% BSA), resulting in the preparation of a 10-times concentrated concentration range. The test compounds are preincubated at the chosen concentration for 20 minutes with the mouse brain homogenate preparation.
Assaying of the MGL activity is carried out at ambient temperature in a 96-well microplate in a final reaction volume of 50 μl. […] After 20 minutes of preincubation with the test compounds, the proteins are incubated for 20 minutes in the presence of 50 μM of 2-OG comprising an amount of [^3H]2-OG of 0.027 μCi per well (specific activity of 20 Ci/mmol). The reaction is stopped by the addition of 50 μl per well of a charcoal suspension (6% of Sigma activated charcoal, reference C4386, in suspension in a 0.5M HCl, 1.5M NaCl solution). After stirring for 10 minutes, the [^3H]glycerol, not retained by the charcoal, is collected by filtration in a microplate comprising 100 μl of scintillant (OptiPhase Supermix, Perkin-Elmer) per well.

Structure (SMILES)	melting point	IC50 [1]
O=C(OC(C(F)(F)F)C(F)(F)F)N1CCC(Nc2ccc(C(F)(F)F)cn2)CC1 (as salt: hydrochloride) [Compound 65, 2,2,2-Trifluoro-1-(trifluoromethyl)ethyl 4-(5-(trifluoromethyl)pyridin-2-ylamino)piperidine-1-carboxylate hydrochloride (1:1)]	225 to 235 °C (dec.)	–
N#Cc1ccc(C2CCN(C(=O)OC(C(F)(F)F)C(F)(F)F)CC2)cc1 [Compound 5, 2,2,2-Trifluoro-1-(trifluoromethyl)ethyl 4-(4-cyanophenyl)piperidine-1-carboxylate]	54 to 56 °C	–
O=C(OC(C(F)(F)F)C(F)(F)F)N1CCC(c2noc3cc(F)ccc23)CC1 [Compound 10, 2,2,2-Trifluoro-1-(trifluoromethyl)ethyl 4-(6-fluorobenz[d]isoxazol-3-yl)piperidine-1-carboxylate]	91 to 93 °C	–
O=C(OC(C(F)(F)F)C(F)(F)F)N1CCC(n2c(=O)[nH]c3cc(Cl)ccc32)CC1 [Compound 12, 2,2,2-Trifluoro-1-(trifluoromethyl)ethyl 4-(5-chloro-2-oxo-2,3-dihydrobenzimidazol-1-yl)piperidine-1-carboxylate]	231 to 233 °C	–
O=C(OC(C(F)(F)F)C(F)(F)F)N1CCC(n2nnc3cc(C(F)(F)F)ccc32)CC1 [Compound 13, 2,2,2-Trifluoro-1-(trifluoromethyl)ethyl 4-(5-(trifluoromethyl)benzotriazol-1-yl)piperidine-1-carboxylate]	–	6 nM
O=C(OC(C(F)(F)F)C(F)(F)F)N1CC[C@H](Oc2cccc(-c3ccc(F)cc3)c2)C1 [Compound 22, 2,2,2-Trifluoro-1-(trifluoromethyl)ethyl (S)-3-(4′-fluorobiphenyl-3-yloxy)pyrrolidine-1-carboxylate]	72 to 73 °C	–
O=C(OC(C(F)(F)F)C(F)(F)F)N1CC[C@@H](Oc2cccc(-c3ccc(F)cc3)c2)C1 [Compound 23, 2,2,2-Trifluoro-1-(trifluoromethyl)ethyl (R)-3-(4′-fluorobiphenyl-3-yloxy)pyrrolidine-1-carboxylate]	72 to 73 °C	–
N#Cc1cccc(-c2cccc(OC3CCN(C(=O)OC(C(F)(F)F)C(F)(F)F)CC3)c2)c1 [Compound 33, 2,2,2-Trifluoro-1-(trifluoromethyl)ethyl 4-(3′-cyanobiphenyl-3-yloxy)piperidine-1-carboxylate]	80 to 82 °C	0.6 nM
N#Cc1cccc(-c2nccc(NC3CCN(C(=O)OC(C(F)(F)F)C(F)(F)F)CC3)n2)c1 [Compound 70, 2,2,2-Trifluoro-1-(trifluoromethyl)ethyl 4-[2-(3-cyanophenyl)pyrimidin-4-ylamino]pipendine-1-carboxylate]	151 to 153 °C	5 nM
CC(C)(Oc1ccc(Cl)cc1)C(=O)NCC1CCN(C(=O)OC(C(F)(F)F)C(F)(F)F)CC1 [Compound 87, 2,2,2-Trifluoro-1-(trifluoromethyl)ethyl 4-{[2-(4-chlorophenoxy)-2-methylpropionylamino]-methyl}piperidine-1-carboxylate]	77 to 78 °C	–
O=C(OC(C(F)(F)F)C(F)(F)F)N1CCC(CNS(=O)(=O)c2cccc3ccccc23)C1 (stereo not drawn) [Compound 113, 2,2,2-Trifluoro-1-(trifluoromethyl)ethyl 3-[(naphthalene-1-sulphonylamino)methyl]-pyrrolidine-1-carboxylate]	135 to 136 °C	–
O=C(Nc1cccc(Cl)c1)NC1CCN(C(=O)OC(C(F)(F)F)C(F)(F)F)CC1 [Compound 166, 2,2,2-Trifluoro-1-(trifluoromethyl)ethyl 4-[3-(3-chlorophenyl)ureido]piperidine-1-carboxylate]	204 to 206 °C	–

Next, values leading:

melting point	IC50 [1]	Structure (SMILES)
116 to 117 °C	1.1 nM	O=C(NCCC1CN(C(=O)OC(C(F)(F)F)C(F)(F)F)C1)Nc1cccc(Cl)c1 [Compound 188, 2,2,2-Trifluoro-1-(trifluoromethyl)ethyl 3-{2-[3-(3-chlorophenyl)ureido]ethyl}azetidine-1-carboxylate]
101 to 102 °C	–	CN(C(=O)NCCC1CN(C(=O)OC(C(F)(F)F)C(F)(F)F)C1)c1ccccc1 [Compound 191, 2,2,2-Trifluoro-1-(trifluoromethyl)ethyl 3-[2-(3-methyl-3-phenylureido)ethyl]azetidine-1-carboxylate]
146 to 148 °C	7 nM	O=C(OC(C(F)(F)F)C(F)(F)F)N1CCC(CNS(=O)(=O)c2cccc3nsnc23)CC1 [Compound 211, 2,2,2-Trifluoro-1-(trifluoromethyl)ethyl 4-[(benzo[1,2,5]thiadiazole-4-sulphonylamino)methyl]piperidine-1-carboxylate]
108 to 109 °C	–	O=C(OC(C(F)(F)F)C(F)(F)F)N1CC(C2(NS(=O)(=O)c3ccc(Cl)cc3)CC2)C1 [Compound 220, 2,2,2-Trifluoro-1-(trifluoromethyl)ethyl 3-[1-(4-chlorobenzenesulphonylamino)cyclopropyl]-azetidine-1-carboxylate]
98 to 118 °C	–	NC(=O)c1cnn(CC2CCN(C(=O)OC(C(F)(F)F)C(F)(F)F)CC2)c1 [Compound 231, 2,2,2-Trifluoro-1-(trifluoromethyl)ethyl 4-(4-carbamoylpyrazol-1-ylmethyl)piperidine-1-carboxylate]
